The record followed here is article PMC6976569, “Structural basis of subtype-selective competitive antagonism for GluN2C/2D-containing NMDA receptors” (Nature Communications, 2020).

What all share (assay type): cell-based
Assay [1] addresses T1, GluN1-4a/GluN2D Met763Lys/Lys766Arg NMDARs (Rattus norvegicus, UniProt Q62645, K766R/M763K).
T1 construct: expressed in transfected cells; host or cells: Xenopus laevis oocytes injected with cRNA
In words: TEVC electrophysiology on oocytes expressing GluN1-4a/GluN2D Met763Lys/Lys766Arg. The note with it: Ki mutant relative to Ki GluN2D (WT). The source says: (§1) To test the validity of the structural observation for the critical involvement of the methionine/lysine residue combination (GluN2D-Met763/Lys766, and GluN2A-4m-Met738/Lys741) in preferential binding of UBP791 to GluN2D over GluN2A, we conducted site-directed mutagenesis and assessed inhibition potencies of the mutant channels by TEVC. Specifically, we converted the GluN2D residues to the equivalent ones in the GluN2A subunit and measured macroscopic currents of the GluN1-4a/GluN2D mutant NMDARs.
(§2) Plasmids (pSP or pCI_NEO) harboring rat GluN1 or GluN2 full-length subunits were linearized by restriction digestion and transcribed according to the manufacturer’s instructions (mMESSAGE mMachine SP6 or T7 kit, ThermoFisher Scientific). Recombinant rat GluN1-4a and GluN2 were expressed by co-injecting cRNA at a 1:2 (w/w) ratio into defolliculated X. laevis oocytes (amounts varied from 0.05–25 ng per oocyte). Two-electrode voltage-clamp recordings were performed 1–3 days after injection using agarose-tipped microelectrodes (0.4–1.2 MΩ) filled with 3 M KCl at a holding potential of −60 mV. The bath solution contained 5 mM HEPES, 100 mM NaCl, 0.3 mM BaCl2, 10 mM Tricine, at pH 7.4 (adjusted with KOH). […] For the statistical evaluation, we implemented pairwise F-tests to test variances, and then performed the Student t test with equal or unequal variances as determined previously, and accounted for multiple testing with the Bonferroni correction.

Assay [2] has as its target T2, GluN1-4a/GluN2D Met763Lys/Lys766Arg NMDARs (Rattus norvegicus, UniProt P35439+Q62645, K766R/M763K).
T2 construct: expressed in transfected cells; host or cells: Xenopus laevis oocytes injected with cRNA
The description is as above.
Excerpt: as §1, §2

Assay [3] concerns the target T3, GluN1-4a/GluN2D Met763Lys NMDARs (Rattus norvegicus, UniProt P35439+Q62645, M763K).
T3 construct: expressed in transfected cells; host or cells: Xenopus laevis oocytes injected with cRNA
The assay is described as follows: TEVC electrophysiology on oocytes expressing GluN1-4a/GluN2D Met763Lys.
Excerpt: as §1, §2

Assay [4] concerns the target T4, GluN1-4a/GluN2D Lys766Arg NMDARs (Rattus norvegicus, UniProt P35439+Q62645, K766R).
T4 construct: expressed in transfected cells; host or cells: Xenopus laevis oocytes injected with cRNA
The assay is described as follows: TEVC electrophysiology on oocytes expressing GluN1-4a/GluN2D Lys766Arg.
Excerpt: as §1, §2

A further assay has as its target T5, GluN1-4a/GluN2C NMDARs (Rattus norvegicus, UniProt Q00961).
T5 construct: expressed in transfected cells; host or cells: Xenopus laevis oocytes injected with cRNA
In words: TEVC electrophysiology on Xenopus laevis oocytes expressing GluN1-4a/GluN2C. The settings on record: Ki GluN2C relative to Ki GluN2D (WT).
Excerpt: The chemical definition of UBP791 used in this study is a cis-racemic mixture of (2S,3R)- and (2R,3S)-isomers.
as §2

T2 sequence (Q62645 28-1323 M763K/K766R, other chains not shown): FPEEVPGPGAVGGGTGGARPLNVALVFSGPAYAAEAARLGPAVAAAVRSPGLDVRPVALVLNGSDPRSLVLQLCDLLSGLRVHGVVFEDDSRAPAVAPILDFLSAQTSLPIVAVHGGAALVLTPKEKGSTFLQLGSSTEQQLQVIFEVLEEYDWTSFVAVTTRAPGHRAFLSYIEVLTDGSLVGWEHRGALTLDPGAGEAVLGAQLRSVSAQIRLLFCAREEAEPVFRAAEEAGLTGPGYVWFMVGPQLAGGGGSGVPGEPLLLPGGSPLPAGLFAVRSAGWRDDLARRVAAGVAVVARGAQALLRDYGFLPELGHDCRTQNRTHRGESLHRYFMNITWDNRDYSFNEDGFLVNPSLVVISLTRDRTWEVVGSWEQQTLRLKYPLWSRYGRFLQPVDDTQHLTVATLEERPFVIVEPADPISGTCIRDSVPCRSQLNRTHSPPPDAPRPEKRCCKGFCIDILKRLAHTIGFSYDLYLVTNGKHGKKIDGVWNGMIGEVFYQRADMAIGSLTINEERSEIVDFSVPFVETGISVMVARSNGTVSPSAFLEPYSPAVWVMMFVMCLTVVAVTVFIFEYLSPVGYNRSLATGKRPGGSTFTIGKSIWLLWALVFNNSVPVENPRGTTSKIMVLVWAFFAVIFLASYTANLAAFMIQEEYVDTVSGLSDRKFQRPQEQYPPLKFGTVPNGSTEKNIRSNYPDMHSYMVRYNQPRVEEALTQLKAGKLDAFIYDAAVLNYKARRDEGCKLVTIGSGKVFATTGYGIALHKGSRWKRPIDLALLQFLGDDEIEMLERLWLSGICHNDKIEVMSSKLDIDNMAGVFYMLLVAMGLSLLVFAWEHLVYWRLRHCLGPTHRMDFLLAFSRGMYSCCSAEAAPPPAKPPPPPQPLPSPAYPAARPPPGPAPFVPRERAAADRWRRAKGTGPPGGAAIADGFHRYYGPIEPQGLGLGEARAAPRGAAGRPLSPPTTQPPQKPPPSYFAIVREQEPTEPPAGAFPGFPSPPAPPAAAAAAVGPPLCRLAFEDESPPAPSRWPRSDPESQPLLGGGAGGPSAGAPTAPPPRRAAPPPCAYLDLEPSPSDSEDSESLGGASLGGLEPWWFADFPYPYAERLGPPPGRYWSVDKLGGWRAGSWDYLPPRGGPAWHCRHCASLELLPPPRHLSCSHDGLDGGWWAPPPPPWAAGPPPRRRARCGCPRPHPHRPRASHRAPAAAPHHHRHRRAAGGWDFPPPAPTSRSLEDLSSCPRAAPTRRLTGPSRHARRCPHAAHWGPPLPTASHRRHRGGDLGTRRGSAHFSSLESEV
T4 sequence (Q62645 28-1323 K766R, other chains not shown): as the sequence (Q62645 28-1323 M763K/K766R, other chains not shown) above, with K736M counted along it
T3 sequence (Q62645 28-1323 M763K, other chains not shown): as the sequence (Q62645 28-1323 M763K/K766R, other chains not shown) above, with R739K counted along it
T1 sequence (Q62645 28-1323 M763K/K766R, other chains not shown): as the sequence (Q62645 28-1323 M763K/K766R, other chains not shown) above
T5 sequence (Q00961 20-1237, other chains not shown): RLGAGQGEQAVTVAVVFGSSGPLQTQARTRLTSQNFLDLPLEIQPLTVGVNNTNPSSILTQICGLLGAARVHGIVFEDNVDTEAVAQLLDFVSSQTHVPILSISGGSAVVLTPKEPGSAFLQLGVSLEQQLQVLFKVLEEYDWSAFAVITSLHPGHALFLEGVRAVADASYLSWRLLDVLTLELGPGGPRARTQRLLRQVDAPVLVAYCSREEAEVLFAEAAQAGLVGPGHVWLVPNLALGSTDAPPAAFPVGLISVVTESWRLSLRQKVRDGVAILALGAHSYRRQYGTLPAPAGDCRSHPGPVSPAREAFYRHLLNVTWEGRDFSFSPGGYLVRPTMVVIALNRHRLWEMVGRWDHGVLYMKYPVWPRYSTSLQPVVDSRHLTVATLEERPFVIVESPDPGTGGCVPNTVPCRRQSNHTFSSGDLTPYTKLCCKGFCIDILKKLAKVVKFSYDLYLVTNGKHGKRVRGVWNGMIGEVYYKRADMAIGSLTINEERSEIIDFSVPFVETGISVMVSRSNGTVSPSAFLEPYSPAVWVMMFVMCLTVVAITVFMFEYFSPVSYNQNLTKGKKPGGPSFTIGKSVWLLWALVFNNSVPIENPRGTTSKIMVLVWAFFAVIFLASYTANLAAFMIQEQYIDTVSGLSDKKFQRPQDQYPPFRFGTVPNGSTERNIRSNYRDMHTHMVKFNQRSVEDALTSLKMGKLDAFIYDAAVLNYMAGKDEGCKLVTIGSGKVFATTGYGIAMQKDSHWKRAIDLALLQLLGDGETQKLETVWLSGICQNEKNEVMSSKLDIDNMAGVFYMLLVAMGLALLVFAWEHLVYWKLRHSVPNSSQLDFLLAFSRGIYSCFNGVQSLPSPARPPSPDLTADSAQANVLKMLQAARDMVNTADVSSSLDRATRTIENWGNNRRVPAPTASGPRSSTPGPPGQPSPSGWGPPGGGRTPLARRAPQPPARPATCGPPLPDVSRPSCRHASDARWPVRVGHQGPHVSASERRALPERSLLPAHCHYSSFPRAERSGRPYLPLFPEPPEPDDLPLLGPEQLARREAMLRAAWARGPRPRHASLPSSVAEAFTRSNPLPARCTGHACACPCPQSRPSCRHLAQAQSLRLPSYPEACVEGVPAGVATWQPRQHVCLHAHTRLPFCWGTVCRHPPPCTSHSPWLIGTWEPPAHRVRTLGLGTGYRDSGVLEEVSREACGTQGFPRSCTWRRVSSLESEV

With `O=C(O)CCc1ccc2c(ccc3cc(C(=O)N4CCN[C@@H](C(=O)O)[C@H]4C(=O)O)ccc32)c1` (relative stereo) [UBP791, (2S*,3R*)-1-(7-(2-carboxyethyl)phenanthrene-2-carbonyl)piperazine-2,3-dicarboxylic acid], in assay [1], the “fold difference of Ki vs. 2D (WT) (2D-M763K/K766R)” value is on record as 13 fold. The IC50 was 7.24 ± 0.44 µM in assay [2], 1900 ± 60 nM in assay [3] and 1450 ± 80 nM in assay [4]. Besides, the Ki in assay [2] stood at 1150 ± 50 nM; in assay [3], 410 ± 70 nM; in assay [4], 170 ± 30 nM.

On to `O=C(O)C=Cc1ccc2c(ccc3cc(C(=O)N4CCN[C@@H](C(=O)O)[C@H]4C(=O)O)ccc32)c1` (relative stereo) [UBP1700, (2S*,3R*)-1-(7-(2-carboxyvinyl)phenanthrene-2-carbonyl)piperazine-2,3-dicarboxylic acid], for which, at GluN1-4a/GluN2C NMDARs, the “fold difference of Ki vs. 2D (GluN2C)” value is recorded as ~ 1.3 fold.

As a reminder, the IC50 is the point on the concentration scale where inhibition reaches its midpoint. What is called Ki is a dissociation constant, usually derived from enzyme kinetics or from competition with a known ligand.
